Assay results taken from US8293786B2 (Alltranz Inc., priority 2007, dated 2012).

Assays:
Type in all cases: in vitro ADME
human abdominal skin [1] = assay: In vitro human skin permeation and skin disposition, flow-through diffusion cells (Examples 2, 2A, 2B); details: for 30 h skin conc: Table 17, 90:8:2 PG:H2O:IPM donor solution, 40% aqueous PEG 400 receiver fluid
Experimental: Flow through diffusion cells were used for the permeation studies. HEPES-buffered Hanks' balanced salts containing 40% PEG 400 with gentamicin or 40% aqueous PEG 400 with gentamicin were used for the receiver compartment. Donor solution was comprised of 90:8:2 PG:H2O:IPM solution or gel formulation. […] Drug accumulation in the skin after a 24, 30 or 42 h diffusion experiment was determined as μmol/g wet tissue weight.
(§1) The skin samples used in the following experiments were obtained from abdominal reduction surgery and dermatomed to a thickness of approximately 200 μm. The skin samples used herein were frozen at −20° C. for less than six months.
(§2) One (1) L of receiver fluid was prepared by measuring 1 L of nanopure water into a graduated cylinder. 90% of the water was added to an Erlenmeyer flask. Hanks' salts (1 bottle) were added to the water along with 5.96 g of HEPES and 0.35 g of sodium bicarbonate. The pH of the solution was adjusted with 1 N sodium hydroxide solution to pH 7.4. The remaining water was added and the receiver fluid was filtered through a 0.2μ filter (Millipore, Billerica, Mass.). Fifty (50) mg of gentamicin was added to the filtered receiver fluid and 400 mL of the receiver fluid was removed and replaced with 400 mL of PEG 400.
The receiver fluid was prepared by measuring 600 mL of nanopure H2O into a graduated cylinder. The H2O was filtered through a 0.2μ filter (Millipore, Billerica, Mass.). Fifty (50) mg of gentamicin was added to the filtered H2O and 400 mL of PEG 400 was added.
The prodrugs were made up in a solution of 45:4:1 PG:H2O:IPM. For this solution, the appropriate amount of drug was weighed into a glass silanized culture tube and IPM was added, the 50 μL of PG to coat the drug, then an additional 247 μL PG was added and the donor solution was vortexed again. Finally 26 μL of water was added. The gel formulation resulted from the mixing of absolute ethanol, nanopure water, IPM, Carbopol® 980, 0.1 N sodium hydroxide solution and the respective drug.
The gel formulation was comprised of absolute ethanol, nanopure water, IPM, Carbopol® 980, 0.1 sodium hydroxide solution and respective drug. The anhydrous gel was comprised of absolute ethanol, PEG monoethyl ether 550, Klucel® hydroxypropylcellulose, and respective drug.
Dermatomed skin harvested from abdominoplasty, stored at −20° C., was used for the experiments. A PermeGear flow-through (In-Line, Hellertown, Pa.) diffusion cell system was used for the skin permeation studies.
(§3) Diffusion cells were kept at 32° C. with a circulating water bath. Human epidermal skin was arranged in the diffusion cell with stratum corneum (upper layer of skin) facing the donor compartment. The permeation area of the skin was 0.95 cm^2. The data was collected from a human skin donor with three diffusion cells per treatment.
(§4) The receiver solution was HEPES-buffered Hanks' balanced salts with gentamicin containing 40% PEG 400 at a pH of 7.4 or 40% aqueous PEG 400 and flow rate was adjusted to 0.8 mL/h. Each cell was charged with 0.10 mL of the respective drug formulation (donor solution) or 50 μL of gel formulation which was rubbed into the skin for 15 sec with a Teflon coated rod. The formulation was applied to ensure complete coverage. The formulation was applied to ensure complete coverage. Diffusion cells were covered with a stopper or cap for the duration of the study.
Samples were collected into scintillation vials in 3 h increments for either 24, 30, or 42 h. All the samples were stored at 4° C. until extracted. An aliquot (0.5 mL) of the diffusion sample was placed into a silanized HPLC vial and 0.5 mL of acetonitrile was added to the sample, capped and vortexed.
At the end of the experiment, the skin tissue was removed from the diffusion cell, rinsed with nanopure water, and blotted dry with a paper towel. The skin was tape stripped twice using book tape (Scotch™, 3M, St. Paul, Minn.) to remove drug formulation adhering to the tissue surface.

[2] = Plasma stability of cannabidiol prodrugs (bioconversion to parent drug); details: Table 20; for % Prodrug at time (h): mono-prodrug in plasma; for % mono-prodrug at time (h) / % Di-prodrug at time (h): di-prodrug in plasma; for % mono-prodrug at time (h): mono-prodrug formed
Experimental: An approximated 1 mg/mL stock solution of each prodrug was prepared in 100 μL of ethanol and 900 μL of acetonitrile. Ten (10) μL of stock was spiked into 1 mL of plasma and vortexed. The samples were kept sealed in an amber vial and samples were obtained to analyze for bioconversion to parent drug.

human abdominal skin [3] = assay: In vitro human skin permeation and skin disposition, flow-through diffusion cells (Example 1)
Experimental: Flow through diffusion cells were used for the permeation studies. HEPES-buffered Hanks' balanced salts containing 40% (polyethylene glycol) PEG 400 with gentamicin was used for the receiver compartment. Donor solution was comprised of either 100% propylene glycol (PG) solution or a rubbed in gel formulation. […] Drug accumulation in the skin after a 24 or 36 h diffusion experiment was determined as μmol/g wet tissue weight.
as §1
as §2, with “1” for “One (1)”, “50” for “Fifty (50)”
Two different formulations were used for charging the donor compartment. Drugs were made up in either 100% PG or a gel formulation. For the PG solution, approximately 50-120 mg of the appropriate drug was weighed into a glass silanized culture tube. The gel formulation resulted from the mixing of absolute ethanol, nanopure water, IPM, Carbopol® 980, 0.1 N aqueous sodium hydroxide solution and the respective drug.
Dermatomed skin harvested from abdominoplasty, stored at −20° C., was used for the experiments. A PermeGear flow-through (In-Line, Riegelsville, Pa.) diffusion cell system was used for the skin permeation studies.
as §3, with “Permeation” for “The permeation”, “Data” for “The data”, “three to four” for “three”
as §4, with “Receiver” for “The receiver”, “7.4” for “7.4 or 40% aqueous PEG 400”, “0.050” for “0.10”, “with 0.035 mL” for “50 μL”, “coverage.” for “coverage. The formulation was applied to ensure complete coverage.”, “a” for “a stopper or”
Samples were collected into scintillation vials in 3 h increments for either 24 h or 36 h. All the samples were stored at 4° C. until extracted. An aliquot (0.5 mL) of the diffusion sample was placed into a silanized HPLC vial and 0.5 mL of acetonitrile was added to the sample, capped and vortexed.
At the end of the experiment, the skin tissue was removed from the diffusion cell, rinsed with nanopure water, and blotted dry with a paper towel. The skin was tape stripped twice using book tape (Scotch™, 3M, St. Paul, Minn.) to remove drug formulation adhering to the tissue surface. The area of skin in contact with the drug was cut out, chopped up and placed in a pre-weighed scintillation vial. Ten mL of acetonitrile was added to the vial and drug was extracted from the skin by shaking at room temperature overnight. The following day a 0.1 mL aliquot was removed and diluted with an additional 0.9 mL of acetonitrile. The diluted sample was added to the silanized HPLC vial for analysis.
At the end of the experiment, a 0.01 mL aliquot of the PG donor solution was removed and added to a scintillation vial containing 10 mL of acetonitrile. The vials were vortexed and then sonicated for 15 min. An aliquot of 1 mL was removed and transferred into a silanized HPLC vial for analysis.

[4] = Table 3, in propylene glycol, prodrug applied
[5] = Table 4, in propylene glycol, prodrug applied
[6] = Table 5, in propylene glycol, prodrug applied

C=C(C)[C@@H]1CCC(C)=C[C@H]1c1c(O)cc(CCCCC)cc1OC(=O)[C@@H](O)CO [ALL00137, CBD (S)-2,3-dihydroxypropanoate]
30 h skin conc (human abdominal skin [1]; CBD from applied prodrug): 0.3 ± 0.0 µmol/g | 30 h skin conc (human abdominal skin [1]; as applied compound (CBD or intact prodrug)): 0.9 ± 0.3 µmol/g | 30 h skin conc (human abdominal skin [1]; prodrug applied, as total cannabidiol equivalents): 1.0 ± 0.5 µmol/g | detected in the skin as (human abdominal skin [1]; in donor solution): prodrug and trace amounts of cannabidiol | permeated through the skin as (human abdominal skin [1]; in donor solution): did not permeate through the skin or was below detection in the receiver samples | total skin concentrations compared to cannabidiol (human abdominal skin [1]; in donor solution): not higher | % Prodrug at time (h) ([2]; 0 h): 89% | % Prodrug at time (h) ([2]; 1 h): 73% | % Prodrug at time (h) ([2]; 3 h): 60% | % Prodrug at time (h) ([2]; 24 h): 4%

C=C(C)C1CCC(C)=CC1c1c(OC(=O)COCCOCCOC)cc(CCCCC)cc1OC(=O)COCCOCCOC (stereo not shown) [ALL00141, CBD bis(2-[2-(2-methoxyethoxy)ethoxy]acetate)]
% mono-prodrug at time (h) ([2]; 2 h): 1% | % mono-prodrug at time (h) ([2]; 20 h): 2% | % Di-prodrug at time (h) ([2]; 0 h): 98% | % Di-prodrug at time (h) ([2]; 2 h): 71% | % Di-prodrug at time (h) ([2]; 20 h): 46%

C=C(C)C1CCC(C)=CC1c1c(OC(=O)OCN(CC)CC)cc(CCCCC)cc1OC(=O)OCN(CC)CC (stereo not shown) [ALL00102]
flux enhancement (in words) (human abdominal skin [3]; Example 1): No flux enhancement | form in which the prodrug permeated through the human skin (human abdominal skin [3]; Example 1): permeated through the human skin as cannabidiol | found in the skin disposition (tissue) samples (human abdominal skin [3]; Example 1): Both cannabidiol and intact prodrug were found | intact prodrug in the diffusion samples (receiver samples) (human abdominal skin [3]; Example 1): No intact prodrug was found | total cannabidiol in the skin compared to cannabidiol (human abdominal skin [3]; Example 1): higher | 24 h cumulative amt (human abdominal skin [3]; [4]): 8.6 ± 6.3 nmol | Flux (human abdominal skin [3]; [4]): 0.6 ± 0.5 nmol/cm^2/h | 24 h cumulative amt (human abdominal skin [3]; [5]): 9.1 ± 5.0 nmol | Flux (human abdominal skin [3]; [5]): 0.7 ± 0.3 nmol/cm^2/h | Lag time (human abdominal skin [3]; [5]): 11.0 ± 2.8 h | 24 h skin conc (human abdominal skin [3]; Table 4, in propylene glycol, prodrug applied, found in skin as CBD): 18.9 ± 9.9 (CBD) μmol/g | 24 h skin conc (human abdominal skin [3]; Table 4, in propylene glycol, prodrug applied, found in skin as PD (prodrug)): 73.4 ± 35.5 (PD) μmol/g | 24 h cumulative amt (human abdominal skin [3]; [6]): 13.7 ± 18.6 nmol | Flux (human abdominal skin [3]; [6]): 0.3 ± 0.1 nmol/cm^2/h | Lag time (human abdominal skin [3]; [6]): 5.1 ± 0.0 h | 24 h skin conc (human abdominal skin [3]; Table 5, in propylene glycol, prodrug applied, found in skin as PD (prodrug)): 183.1 ± 62.8 (PD) μmol/g | 24 h cumulative amt (human abdominal skin [3]; Table 9, in gel formulation): 1.1 ± 0.4 nmol | Flux (human abdominal skin [3]; Table 9, in gel formulation): 0.05 ± 0.02 nmol/cm^2/h | Lag time (human abdominal skin [3]; Table 9, in gel formulation): 1.6 ± 1.6 h | 24 h skin conc (human abdominal skin [3]; Table 9, in gel formulation, as applied compound (CBD, or PD = intact prodrug)): 22.9 ± 9.3 (PD) μmol/g | 24 h skin conc (human abdominal skin [3]; Table 9, in gel formulation, prodrug applied, found in skin as CBD): 0.4 ± 0.3 (CBD) μmol/g | 24 h skin conc (human abdominal skin [3]; Table 10, in propylene glycol, as applied compound (CBD, or PD = intact prodrug)): 31.3 ± 5.5 (PD) μmol/g
